In one assay the test system is increase of diastolic pressure caused by Arg-vasopressin. Nature of the assay: Anti-vasopressor activity in vivo (pith rat, increase of diastolic pressure by Arg-vasopressin). Set-up: species or system male SD rat. The following applies: iv, read-out: ED50 (dose required to reduce the increase of diastolic pressure caused by Arg-vasopressin to 50 % of its control value).
As for `COc1ccc(C(=O)N2CCC(N3C(=O)CCc4ccccc43)CC2)c(OC)c1` [Example 47, 1-[1-(2,4-Dimethoxybenzoyl)-4-piperidinyl]-3,4-dihydrocarbostyril], the ED50 – broadly, the dose that gives a 50% effect, or the effect in half of the subjects – amounted to 0.4 mg/kg.

For the next assay, the target named is V1 receptor (Rattus norvegicus, UniProt P30560). Nature of the assay: biochemical.
Chain of V1 receptor (P30560 whole entry): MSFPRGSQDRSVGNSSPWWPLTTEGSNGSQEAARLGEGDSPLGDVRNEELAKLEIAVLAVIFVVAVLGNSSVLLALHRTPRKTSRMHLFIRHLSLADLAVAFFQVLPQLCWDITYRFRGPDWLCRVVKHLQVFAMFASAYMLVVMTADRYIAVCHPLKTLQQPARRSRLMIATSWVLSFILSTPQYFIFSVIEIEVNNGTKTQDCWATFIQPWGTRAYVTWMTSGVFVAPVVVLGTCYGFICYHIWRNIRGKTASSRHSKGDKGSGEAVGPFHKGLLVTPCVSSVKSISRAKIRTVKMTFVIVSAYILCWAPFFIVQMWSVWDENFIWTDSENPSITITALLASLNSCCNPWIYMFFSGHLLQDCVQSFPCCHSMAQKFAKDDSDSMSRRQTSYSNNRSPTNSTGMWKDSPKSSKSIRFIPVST
Details: not given
It is filed as binding.
`COc1ccc(C(=O)N2CCC(N3C(=O)CCc4ccccc43)CC2)c(OC)c1` [Example 47, 1-[1-(2,4-Dimethoxybenzoyl)-4-piperidinyl]-3,4-dihydrocarbostyril]: inhibition was half-maximal at 100 nM (IC50). In other words, the sub-micromolar range.

Consider `CC[N+](C)(CC)CC(CCCCOc1ccc(C(=O)N2CCC(N3C(=O)CCc4ccccc43)CC2)cc1)OC` (stereo not drawn) [Example 301, 1-{1-[4-(5-Methoxy-6-diethylmethylammoniumhexyloxy)benzoyl]-4-piperidinyl}-3,4-dihydrocarbostyril.iodine], for which the half-maximal inhibitory concentration (IC50) (commonly the concentration that gives 50% inhibition) turned out to be 47 nM.

Take `NC(=O)[C@@H]1CCCN1CC(O)CCCCOc1ccc(C(=O)N2CCC(N3C(=O)CCc4ccccc43)CC2)cc1` (stereo partly drawn) [Example 302]: the IC50 came to 88 nM.

`O=C(c1ccc(OCCCCC(O)CN2CCCCC2)cc1)N1CCC(N2C(=O)CCc3ccccc32)CC1` (stereo not drawn) [Example 303, 1-{1-[4-(5-Hydroxy-6-(1-piperidinyl)hexyloxy)benzoyl]-4-piperidinyl}-3,4-dihydrocarbostyril] gave an IC50 of 38 nM. Against the preceding compound, the IC50 is about 2.3-fold lower.

`O=C(c1ccc(OCCCCC(O)CN2CCC(Cc3ccccc3)CC2)cc1)N1CCC(N2C(=O)CCc3ccccc32)CC1` (stereo not drawn) [Example 304, 1-{1-(4-[5-Hydroxy-6-(4-benzyl-1-piperidinyl)hexyloxy]benzoyl]-piperidinyl}-3,4-dihydrocarbostyril] came in with an IC50 of 37 nM.

The compound `CCN(CC)CC(CCCCOc1ccc(C(=O)N2CCC(N3C(=O)CCc4ccccc43)CC2)cc1)OC(C)=O` (stereo not drawn) [Example 305, 1-{1-[4-(5-Acetoxy-6-diethylaminohexyloxy)benzoyl]-4-piperidinyl)-3,4-dihydrocarbostyril] displayed a concentration for half-maximal inhibition (IC50) of 65 nM. Compared with the last compound, the IC50 is about 1.8-fold higher.

`CCOc1ccc(C(=O)N2CCC(N3C(=O)CCc4c(F)cccc43)CC2)c(OC)c1` [Example 306, 5-Fluoro-1-[1-(2-methoxy-4-ethoxybenzoyl)-4-piperidinyl}-3,4-dihydrocarbostyril] had a half-inhibitory concentration (IC50) of 84 nM.

As to `CCN(CC)CCCCCCOc1ccc(C(=O)N2CCC(N3C(=O)CCc4c(C)cccc43)CC2)cc1` [Example 307, 5-Methyl-1-{1-[4-(6-diethylaminohexyloxy)benzoyl]-4-piperidinyl}-3,4-dihydrocarbostyril], the concentration for half-maximal inhibition (IC50) came to 23 nM.

In the case of `CCOc1ccc(C(=O)N2CCC(N3C(=O)CCc4c(O)cccc43)CC2)c(OC)c1` [Example 308, 5-Hydroxy-1-[1-(2-methoxy-4-ethoxybenzoyl)-4-piperidinyl}-3,4-dihydrocarbostyril], the IC50 was found to be 95 nM.

`CCOc1ccc(C(=O)N2CCC(N3C(=O)CCc4c(OC(C)=O)cccc43)CC2)c(OC)c1` [Example 309, 5-Acetoxy-1-[1-(2-Methoxy-4-ethoxybenzoyl)-4-piperidinyl]-3,4-dihydrocarbostyril]: the IC50 stood at 73 nM.

Turning to `CS(=O)(=O)NCC(=O)NCCCCCOc1ccc(C(=O)N2CCC(N3C(=O)CCc4ccccc43)CC2)cc1` [Example 310, 1-{1-(4-[5-(2-Methanesulfonylaminoacetylamino)pentyloxy]benzoyl)-4-piperidinyl]-3,4-dihydrocarbostyril], the IC50 came out at 160 nM. Compared with the last compound, the IC50 is about 2.2-fold higher.

Source of the values: patent US5436254A, “Carbostyril derivatives” (Otsuka Pharmaceutical Company, Ltd., priority 1989, dated 1995).
